Measured values taken from patent US20050208496A1, “Methods of testing for bronchial asthma or chronic obstructive pulmonary disease” (Genox Research, Inc., priority 2002, published 2005).
Like-named read-outs stand apart in the source and are kept apart here.

System: respiratory epithelial cells
[1] = IL-13 vs no stimulation, lot 2 Day 3 AI
[2] = IL-13 vs no stimulation, lot 2 Day 7 AI

Substance: IL-13: human IL-13 (Peprotech, Inc.) added to the medium at 50 ng/mL to stimulate respiratory epithelial cells
- IGFBP6 (1736_at) expression change [1]: −4.7
- LOH11CR2A (38151_at) expression change [1]: −3.2
- MMP9 (31859_at) expression change [1]: −18
- MMP10 (1006_at) expression change [1]: −30.3
- MSMB (32149_at) expression change [1]: −21.3
- NDRG1 (36933_at) expression change [1]: −2.9
- NOTCH3 (38750_at) expression change [1]: −4.5
- PFTK1 (36502_at) expression change [1]: −2.3
- PSCA (33792_at) expression change [1]: −4.9
- PTK2B (33804_at) expression change [1]: −3.7
- PTPRZ1 (1364_at) expression change [1]: −4.3
- RARRES1 (1042_at) expression change [1]: −3.1
- RARRES1 (33505_at) expression change [1]: −3.5
- RDC1 (34288_at) expression change [1]: −3.7
- RTP801 (39827_at) expression change [1]: −2.3
- S100A8 (41096_at) expression change [1]: −3
- SEC14L2 (32817_at) expression change [1]: −6.9
- SERPINA3 (33825_at) expression change [1]: −7
- SERPINE1 (672_at) expression change [1]: −62.1
- SERPINE1 (38125_at) expression change [1]: −11.2
- STK39 (39120_at) expression change [1]: −2.6
- TSPAN-5 (40990_at) expression change [1]: −3.2
- VRP (38223_at) expression change [1]: −2
- c-fos (1915_s_at) expression change [1]: −2
- c-fos (1916_s_at) expression change [1]: −3.1
- AGR2 (38827_at) expression change [2]: −3.7
- AKR1B10 (37482_at) expression change [2]: −9.7
- AKR1C3 (37399_at) expression change [2]: −2.8
- ANXA10 (32349_at) expression change [2]: −18.9
- APM2 (32527_at) expression change [2]: −3.3
- BCAS1 (37821_at) expression change [2]: −13.2
- BDKRB2 (39310_at) expression change [2]: −4.2
- BENE (33331_at) expression change [2]: −8.5
- C4.4A (41641_at) expression change [2]: −6.8
- CRA (1230_g_at) expression change [2]: −3
- CTSL2 (40717_at) expression change [2]: −5.6
- DEFB2 (32464_at) expression change [2]: −2.6
- ECM1 (37600_at) expression change [2]: −11
- EPHA1 (1108_s_at) expression change [2]: −3.6
- ETFB (36881_at) expression change [2]: −3.4
- FABP5 (39799_at) expression change [2]: −3
- GABRE (34280_at) expression change [2]: −3.2
- HLA-DPB1 (38095_i_at) expression change [2]: −2.5
- HLA-DPB1 (38096_f_at) expression change [2]: −3.3
- IGFBP6 (1736_at) expression change [2]: −7.2
- IMPA2 (36496_at) expression change [2]: −2.7
- MMP9 (31859_at) expression change [2]: −113.5
- MMP10 (1006_at) expression change [2]: −35.2
- MN1 (37283_at) expression change [2]: −7.3
- MSMB (32149_at) expression change [2]: −8.1
- NCALD (38803_at) expression change [2]: −4.2
- NOTCH3 (38750_at) expression change [2]: −3.5
- PFTK1 (36502_at) expression change [2]: −3.5
- PSCA (33792_at) expression change [2]: −9.2
- PTK2B (33804_at) expression change [2]: −3.5
- PTPRZ1 (1364_at) expression change [2]: −14.9
- RARRES1 (1042_at) expression change [2]: −2.4
- RARRES1 (33505_at) expression change [2]: −3.4
- RDC1 (34288_at) expression change [2]: −3
- RTP801 (39827_at) expression change [2]: −2.4
- S100A8 (41096_at) expression change [2]: −6.1
- SERPINA3 (33825_at) expression change [2]: −9.3
- SERPINB1 (33305_at) expression change [2]: −2.9
- SERPINB5 (862_at) expression change [2]: −2.2
- SERPINE1 (672_at) expression change [2]: −34.4
- SERPINE1 (38125_at) expression change [2]: −11
- STK39 (39120_at) expression change [2]: −2.3
- TSPAN-5 (40990_at) expression change [2]: −6
- VRP (38223_at) expression change [2]: −2.4
- c-fos (1915_s_at) expression change [2]: −2.3
- c-fos (1916_s_at) expression change [2]: −3.6
- pendrin gene expression level, factor of increase in response to IL-13 stimulation (IMM method, day 3 and day 7, both Lots 1 and 2): ≥ 20
- pendrin gene (36376_at, AF030880) expression fold change upon IL-13 stimulation, HG-U95A chip (Lot 2, Day 3, AI): 118.3
- pendrin gene (36376_at, AF030880) expression fold change upon IL-13 stimulation, HG-U95A chip (Lot 2, Day 7, AI): 58.2
- AA149682 (51925_at) expression fold change (lot 1, Day 3, AI method): 2.9 fold
- AA420479 (52539_at) expression fold change (lot 1, Day 3, AI method): 3.8 fold
- AA541787 (52622_at) expression fold change (lot 1, Day 3, AI method): 3.3 fold
- AA582926 (52307_at) expression fold change (lot 1, Day 3, AI method): 2.4 fold
- ACP5 (677_s_at) expression, fold change upon IL-13 stimulation (lot 1, Day 3, AI method): −2.8 fold
- ADAM8 (40712_at) expression, fold change upon IL-13 stimulation (lot 1, Day 3, AI method): 5.8 fold
- ADAM28 (35479_at) expression, fold change upon IL-13 stimulation (lot 1, Day 3, AI method): 9 fold
- AI310524 (47087_at) expression fold change (lot 1, Day 3, AI method): 3.6 fold
- AI565105 (54886_at) expression fold change (lot 1, Day 3, AI method): 2.8 fold
- AI659927 (54033_at) expression fold change (lot 1, Day 3, AI method): 4.2 fold
- AI718385 (53061_at) expression fold change (lot 1, Day 3, AI method): 4.6 fold
- AI809925 (53010_at) expression fold change (lot 1, Day 3, AI method): 3.1 fold
- AI989346 (52327_s_at) expression fold change (lot 1, Day 3, AI method): 2.9 fold
- AKAP2 (35985_at) expression, fold change upon IL-13 stimulation (lot 1, Day 3, AI method): 6 fold
- AKAP2 (48035_at) expression fold change (lot 1, Day 3, AI method): 6.6 fold
- ALOX15 (34636_at) expression, fold change upon IL-13 stimulation (lot 1, Day 3, AI method): 47.8 fold
- BAL (52167_at) expression fold change (lot 1, Day 3, AI method): 3.5 fold
- BRCA1 (626_s_at) expression fold change (lot 1, Day 3, AI method): 9.1 fold
- BST2 (39061_at) expression, fold change upon IL-13 stimulation (lot 1, Day 3, AI method): 9.9 fold
- C1S (40496_at) expression, fold change upon IL-13 stimulation (lot 1, Day 3, AI method): 3.3 fold
- C21orf11 (58957_at) expression fold change (lot 1, Day 3, AI method): 6.6 fold
- CCND3 (1794_at) expression fold change upon IL-13 stimulation (lot 1, Day 3, AI method): 2.2 fold
- CCND3 (1795_g_at) expression fold change upon IL-13 stimulation (lot 1, Day 3, AI method): 2.2 fold
- CD47 (37890_at) expression fold change (lot 1, Day 3, AI method): 2.1 fold
- CDH6 (1620_at) expression fold change upon IL-13 stimulation (lot 1, Day 3, AI method): 4.3 fold
- CDH6 (57421_at) expression fold change (lot 1, Day 3, AI method): 3.5 fold
- CDH26 (46916_at) expression fold change (lot 1, Day 3, AI method): 8.9 fold
- CH25H (32363_at) expression, fold change upon IL-13 stimulation (lot 1, Day 3, AI method): 9.9 fold
- CLDN1 (46260_at) expression fold change (lot 1, Day 3, AI method): 2.4 fold
- CLDN4 (35276_at) expression, fold change upon IL-13 stimulation (lot 1, Day 3, AI method): 2.3 fold
- CTSC (133_at) expression, fold change upon IL-13 stimulation (lot 1, Day 3, AI method): 3.5 fold
- CXCL16 (44095_at) expression fold change (lot 1, Day 3, AI method): 2.5 fold
